The record followed here is patent publication US9643933B2, “Compounds useful as antibiotic tolerance inhibitors” (priority 2013, dated 2017).

Read-outs that look alike come from different tables or passages of the source.

Assay [1] concerns HHQ. The assay can be described thus: Assay for HHQ Inhibition (6 Hour Incubation). Type of assay: cell-based, P. aeruginosa PA14 wild-type strain. On the procedure:
(§1) A concentration range with 7 test concentrations is chosen for each test compound. Typically concentration ranges for the PQS and HHQ assays are from 0.03 to 31.6 μM. Compounds are prepared in solvent, usually DMSO, at either 200 or 500 times the final test concentration.
(§2) P. aeruginosa PA14 wild-type strain is inoculated into 5 ml LB broth in a 15 ml sterile glass culture tube and incubated overnight at 37° C. under shaking (˜240 rpm). After overnight incubation, the bacterial culture is diluted in fresh LB broth to an OD600 nm=0.04, and 5 mL aliquots of the diluted bacterial culture are distributed into 15-mL glass tubes. 10 μL of test compound at 500 times the final test concentration or 25 μL of test compound at 200 times the final test concentration or solvent alone is added to each of the bacterial suspension tubes, and the tubes are incubated at 37° C. under shaking (300 rpm) for 6 hours. At the end of the incubation period, a 0.5 mL aliquot of bacterial suspension is transferred from each 15 mL glass tube, after shaking, to a 2 mL polypropylene vial. 0.5 mL of methanol-containing D4-PQS (deuterated-PQS), D4-HHQ (deuterated-HHQ) and 2% acetic acid are added to each 2 mL vial and each vial is vigorously shaken. The vials are then centrifuged for 5 minutes at 12,000 g, and 200 μL of supernatant from each vial is transferred to a glass vial (vials crimp 0.2 mL), and the sealed vials are kept at 4° C. until LC-MS/MS analysis is performed. HAQs quantification is carried out analyzing samples in discrete batches together with spiked standards and blank samples. Calibration curves are constructed from HAQs standards, and respective deuterated forms are used as Internal Standards (IS), to calculate the concentration of analytes in the sample and improve the precision of the assay. The back-calculated concentrations of the calibration standards from the calibration curve shall be within ±20% of the nominal values, the range of the analytical method is determined, and the lower and upper limit of quantification specified.
(§3) Liquid chromatography separations are performed using Agilent HP1100 system (Agilent Technologies) coupled with a CTC PAL Autosampler (CTC Analytics AG). Chromatographic retention is obtained using a monolithic column (Chromolith® RP-18, 50×4.6 mm). The solvent system consists of water containing 0.1% (v/v) formic acid (A) and acetonitrile containing 0.1% (v/v) formic acid (B). The gradient elution profile is chosen as follows: 0 min: 70% A (1500 μL/min), 0.3 min: 70% A (1500 μL/min), 1.3 min: 5% A (2500 μL/min), 1.6 min: 5% A (2500 μL/min).
(§4) The MS/MS analysis is performed with a API4000 series mass spectrometer (AB Sciex™) operating in Multiple Reaction Monitoring (MRM) mode and equipped with a TIS ion source. The specific ions monitored are PQS (m/z 260→m/z 175), D4-PQS (m/z 264→m/z 179), HHQ (m/z 244→m/z 159) and D4-HHQ (m/z 248→m/z 163). PQS and HHQ in presence of different test compound concentrations are expressed as percentage of inhibition of the basal level in control samples.

In assay [2] the test system is PQS. The assay can be described thus: Assay for PQS Inhibition (6 Hour Incubation). The class given is cell-based, P. aeruginosa PA14 wild-type strain. As to the method: as §1, §2, §3, §4
The mark [3] stands for this setting: Pseudomonas aeruginosa, PA14, 6 h, read-out: HHQ (6 hr) IC50 (μM).
Where [4] appears, read: Pseudomonas aeruginosa, PA14, 6 h, read-out: PQS (6 hr) IC50 (μM).

“2-((5-chloro-1H-benzo[d]imidazol-2-yl)thio)-N-(4-(pyrimidin-5-yloxy)phenyl)acetamide [Compound 79]”: the half-maximal inhibitory concentration (IC50) (in general, the midpoint of a concentration-inhibition curve) was below 1 µM in assay [1] (P. aeruginosa PA14 culture, 6 hours incubation, HHQ by LC-MS/MS, read-out: HHQ (6 hr) IC50) and below 1 µM in assay [2] (P. aeruginosa PA14 culture, 6 hours incubation, PQS by LC-MS/MS, read-out: PQS (6 hr) IC50).

On to `N#Cc1ccc(NC(=O)CSc2nc3cc(C(F)(F)F)ccc3[nH]2)cc1` [Compound 56], for which the IC50 in assay [1] (setting [3]) and in assay [2] (setting [4]) was below 1 µM throughout.

On to `N#Cc1ccc(NC(=O)CSc2nc3cc(F)ccc3[nH]2)cc1` [Compound 57], for which the IC50 in assay [1] (setting [3]) and in assay [2] (setting [4]) was 1 to 5 µM each time.

For the molecule `O=C(CNc1nc2cc(Cl)ccc2s1)Nc1ccc(Oc2cccnc2)cc1` [Compound 71, 2-((5-chlorobenzo[d]thiazol-2-yl)amino)-N-(4-(pyridin-3-yloxy)phenyl)acetamide], the half-inhibitory concentration (IC50) in assay [1] (setting [3]) and in assay [2] (setting [4]) was 1 to 5 µM throughout.

For the molecule `O=C(CNc1nc2cc(Cl)ccc2o1)Nc1ccc(Oc2cccnc2)cc1` [Compound 74, 2-((5-chlorobenzo[d]oxazol-2-yl)amino)-N-(4-(pyridin-3-yloxy)phenyl)acetamide], the half-maximal inhibitory concentration (IC50) in assay [1] (setting [3]) was below 1 µM; in assay [2] (setting [4]), 1 to 5 µM.

In the case of `O=C(CSc1nc2cc(Cl)ccc2[nH]1)Nc1ccc(Oc2cccnc2)cc1` [Compound 77, 2-((5-chloro-1H-benzo[d]imidazol-2-yl)thio)-N-(4-(pyridin-3-yloxy)phenyl)acetamide], the IC50 in assay [1] (setting [3]) and in assay [2] (setting [4]) was below 1 µM in each case.

Take `O=C(CSc1nc2cc(Cl)ccc2[nH]1)Nc1ccc(Oc2cccnc2Cl)cc1` [Compound 83, 2-((5-chloro-1H-benzo[d]imidazol-2-yl)thio)-N-(4-((2-chloropyridin-3-yl)oxy)phenyl)acetamide]: the IC50 in assay [1] (setting [3]) and in assay [2] (setting [4]) was below 1 µM each time.

For `O=C(CSc1nc2cc(Cl)ccc2[nH]1)Nc1ccc(Oc2ccc(Cl)nc2)cc1` [Compound 84, 2-((5-chloro-1H-benzo[d]imidazol-2-yl)thio)-N-(4-((6-chloropyridin-3-yl)oxy)phenyl)acetamide], the 50% inhibitory concentration (IC50) in assay [1] (setting [3]) and in assay [2] (setting [4]) was below 1 µM throughout.

As to `O=C(CCc1nc2cc(Cl)ccc2s1)Nc1ccc(Oc2cccnc2)cc1` [Compound 85, 3-(5-chlorobenzo[d]thiazol-2-yl)-N-(4-(pyridin-3-yloxy)phenyl)propanamide], the concentration for half-maximal inhibition (IC50) in assay [1] (setting [3]) and in assay [2] (setting [4]) was 1 to 5 µM in each case.

As for `O=C(CCc1nc2ccc(Cl)cc2s1)Nc1ccc(Oc2cccnc2)cc1` [Compound 86, 3-(6-Chlorobenzo[d]thiazol-2-yl)-N-(4-(pyridin-3-yloxy)phenyl)propanamide], the half-inhibitory concentration (IC50) in assay [1] (setting [3]) and in assay [2] (setting [4]) was above 10 µM in each case.

`N#Cc1ccc(NC(=O)CSc2nc3ccc(C#N)cc3[nH]2)cc1` [Compound 93]: the IC50 was below 1 µM in assay [1] (setting [3]) and 1 to 5 µM in assay [2] (setting [4]).

With `N#Cc1ccc2nc(SCC(=O)Nc3ccc(Cl)cc3)[nH]c2c1` [Compound 94], the half-inhibitory concentration (IC50) in assay [1] (setting [3]) and in assay [2] (setting [4]) was 1 to 5 µM in each case.

Turning to `N#Cc1ccc(NC(=O)CSc2nc3cc(Br)ccc3[nH]2)cc1` [Compound 96], the 50% inhibitory concentration (IC50) in assay [1] (setting [3]) and in assay [2] (setting [4]) was below 1 µM in each case.

For `N#Cc1ccc(NC(=O)CSc2nc3cc(OC(F)F)ccc3[nH]2)cc1` [Compound 104], the IC50 in assay [1] (setting [3]) and in assay [2] (setting [4]) was 1 to 5 µM throughout.

Take `O=C(CSc1nc2cc(C(F)(F)F)ccc2[nH]1)Nc1ccc(Cl)cc1` [Compound 105]: the IC50 in assay [1] (setting [3]) and in assay [2] (setting [4]) was below 1 µM throughout.

For the molecule `O=C(CSc1nc2cc(F)ccc2[nH]1)Nc1ccc(Cl)cc1` [Compound 110], the IC50 in assay [1] (setting [3]) and in assay [2] (setting [4]) was 1 to 5 µM each time.

As for `O=C(CSc1nc2ccc(-n3cccn3)cc2[nH]1)Nc1ccc(Cl)cc1` [Compound 116], the IC50 in assay [1] (setting [3]) and in assay [2] (setting [4]) was above 10 µM throughout.

`N#Cc1ccc(NC(=O)CSc2nc3cc(Cl)ccc3[nH]2)cc1` [Compound 125]: the 50% inhibitory concentration (IC50) in assay [1] (setting [3]) and in assay [2] (setting [4]) was below 1 µM in each case.

With `O=C(CSc1nc2cc(F)c(F)cc2[nH]1)Nc1ccc(Br)cc1` [Compound 126], in assay [2] (setting [4]), the concentration for half-maximal inhibition (IC50) fell in the range of 1 to 5 µM.

Take `O=C(CSc1nc2ccc(Cl)cc2[nH]1)Nc1ccc(Cl)cc1` [Compound 137]: the IC50 in assay [1] (setting [3]) and in assay [2] (setting [4]) was below 1 µM each time.

`COc1ccc(NC(=O)CSc2nc3ccc(Cl)cc3[nH]2)cc1` [Compound 140]: the IC50 in assay [2] (setting [4]) was in the range of 5 to 10 µM.

On to `N#Cc1ccc(NC(=O)CSc2nc3cc(Cl)ccc3[nH]2)cc1Cl` [Compound 142], for which the IC50 in assay [1] (setting [3]) and in assay [2] (setting [4]) was below 1 µM in each case.

As for `O=C(CSc1nc2ccc(Br)cc2[nH]1)Nc1ccc(Cl)cc1` [Compound 145], the IC50 in assay [1] (setting [3]) and in assay [2] (setting [4]) was below 1 µM each time.

For `N#Cc1ccc(NC(=O)CSc2nc3cc(Br)ccc3o2)cc1` [Compound 147], the IC50 in assay [1] (setting [3]) and in assay [2] (setting [4]) was below 1 µM throughout.

Take `O=C(CCc1nc2ccc(Cl)cc2[nH]1)Nc1ccc(Oc2cccnc2)cc1` [Compound 152, 3-(5-chloro-1H-benzo[d]imidazol-2-yl)-N-(4-(pyridin-3-yloxy)phenyl)propanamide]: the IC50 in assay [1] (setting [3]) and in assay [2] (setting [4]) was below 1 µM in each case.
